Entries after “also recorded” stand apart in the source; their conditions may differ.
How the values were obtained:
AMPK alpha2 = conditions: treatment for 10 weeks; cited from earlier work
L6 muscle cells = assay: glucose uptake (2-NBDG) in L6 myotubes; format: cell-based
Experimental: The permeate portion of GMM was tested for glucose uptake in L6 muscle cells. L6 cells were grown as monolayers in Dulbecco's modified Eagle's medium (DMEM) containing 1 mM glutamine, 1 mM pyruvate and 25 mM glucose. The medium was supplemented with 5% fetal calf serum (FCS). Experiments were undertaken in 48-well plates seeded from pre-confluent flasks with 50 000 cells per well. The cells were grown to confluence and the medium was changed to DMEM containing 0.5% FCS and 2.5 mM glucose (L6 Myo Medium) for at least 76 hrs to induce differentiation of L6 cells and formation of L6 myotubes. Myotubes were then incubated with test substances for 30 minutes—Protocol SMM, or in Dulbecco's PBS supplemented with 20 mM Hepes and 2 mM glucose without serum—Serum-free Medium (SFM) Protocol as described by Fryer et al. (Activation of glucose transport by AMP-activated protein kinase via stimulation of Nitric oxide synthase, Diabetes, 49(12), 1978-85, 2000, Fryer LGD, et al, herein incorporated by reference in its entirety.).
Next, 30 uM of 2-NBDG was added for 2 minutes at 22 C. Subsequently, cell culture medium was removed and cells were washed twice with cold DPBS. Then, cells were lysed in 0.5% SDS. Fluorescence was measured at 466/542 nm (excitation/emission) using 100 ul of cell lysate in 2 ml of water.
Cells were cultured, and treated in L6 Myo Medium (SSM)—SSM Protocol or in serum-free medium (SFM—DPBS containing 20 mM Hepes, 2 mM glucose)—SFM Protocl as described by Fryer et al. Glucose uptake was measured by adding 30 uM of 2-NBDG for 2′ at 22 C. Experiments were performed in duplicates.
L-NMMA has been used in the experiment to verify whether GMM-induced glucose transport in L6 cells is or is not inhibited by NOS inhibitors, thus mimicking AICAR-induced mechanism of increased glucose transport. […]
In FIG. 14, permeate cells were tested to determine whether permeate-induced glucose uptake could be inhibited by L-NMMA at the same concentration as that used for inhibition of the AICA effect on glucose uptake. […] Glucose uptake was measured at 22 C for 2 minutes.

astrocytes = conditions: incubation of astrocytes; cited from earlier work
hippocampal neurons = conditions: glucose deprivation, chemical hypoxia, glutamate, amyloid beta-peptide; cited from earlier work
[1] = system: rat epitrochlearis muscles; conditions: 30 microU/ml insulin, treated 3.5 h previously; cited from earlier work
[2] = chronic administration; cited from earlier work
AMPK = conditions: cited from earlier work
3T3-L1 adipocytes = conditions: added at an early phase of differentiation; cited from earlier work
[3] = administered before ischemia; cited from earlier work

CN(C)C(=N)N=C(N)N [Metformin, metformin]
AMPK alpha2 activity in the skeletal muscle (AMPK alpha2): significantly increased

insulin
glucose uptake increase (L6 muscle cells; culture medium supplemented with 0.5% FCS (SSM)): 100-120%
glucose uptake increase (L6 muscle cells; serum-free medium (DPBS)): 40-50%

CC(=O)O.CNC(=N)NCCC[C@H](N)C(=O)O [L-NMMA, NG-methyl-L-arginine, acetate salt]
effect on permeate/GMM-induced glucose uptake (L6 muscle cells; L-NMMA 300 uM, 30 minutes pre-treatment in DPBS, acetate salt): inhibits; also recorded: blocks

NC(=O)c1ncn([C@@H]2O[C@H](COP(=O)(O)O)[C@@H](O)[C@H]2O)c1N [AICAR, 5′-aminoimidazole 4-carboxamide 1-ribonucleotide]
ketogenesis from palmitate and carnitine palmitoyltransferase I (astrocytes): stimulate
neuronal death (hippocampal neurons): protected hippocampal neurons against death
increase in glucose transport in response to insulin versus untreated control muscles [1]: about twofold greater
GLUT4 protein expression [2]: enhance
HDL cholesterol levels [2]: increased
fasting concentrations of glucose and insulin [2]: decreased
lowering of systolic blood pressure [2]: 14.6+/−4.3 mmHg
oral glucose tolerance test [2]: normalized
plasma triglyceride levels [2]: significantly reduced
increase in AMPK activity over the resting level (AMPK): two- to three-fold increase
differentiation of 3T3-L1 adipocytes (3T3-L1 adipocytes): inhibit the differentiation
energy metabolism and hepatic injury [3]: simulated the benefits of preconditioning

Source: patent publication US7320806B2, “Compositions and methods for treating NIDDM and other conditions and disorders associated with AMPK regulation” (priority 2003, dated 2008)
